Experimental data: PubChem BioAssay (NCI)
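Step 1: Grow cells in 96-well plates. Step 2: Expose to compound for 48 hours at 5 concentrations. Step 3: Interpolate endpoints linearly; if unreached, use highest concentration. GI50 = concentration required for 50% inhibition of growth. TGI: total growth inhibition.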

Legend:
Assay in all cases: growth of human tumour cells (NCI), 48 h; in the data active means GI50 below about 0.43 µM; inactive means the rest
[1] = test system: 786-0 renal
[2] = test system: A498 renal
[3] = test system: A549 NSCLC
[4] = test system: ACHN renal
[5] = test system: BT-549 breast
[6] = test system: CAKI-1 renal
[7] = test system: CCRF-CEM leukemia
[8] = test system: COLO 205 colon
[9] = test system: DU-145 prostate
[10] = test system: EKVX NSCLC
[11] = test system: HCC-2998 colon
[12] = test system: HCT-116 colon
[13] = test system: HCT-15 colon
[14] = test system: HL-60(TB) leukemia
[15] = test system: HOP-62 NSCLC
[16] = test system: HS 578T breast
[17] = test system: HT29 colon
[18] = test system: IGROV1 ovarian
[19] = test system: K-562 leukemia
[20] = test system: KM12 colon
[21] = test system: LOX IMVI melanoma
[22] = test system: M14 melanoma
[23] = test system: MALME-3M melanoma
[24] = test system: MCF7 breast
[25] = test system: MDA-MB-231 breast
[26] = test system: MDA-MB-435
[27] = test system: MDA-MB-468 breast
[28] = test system: MOLT-4 leukemia
[29] = test system: NCI-H226 lung
[30] = test system: NCI-H23 lung
[31] = test system: NCI-H460 lung
[32] = test system: NCI-H522 lung
[33] = test system: NCI/ADR-RES ovarian
[34] = test system: OVCAR-3 ovarian
[35] = test system: OVCAR-4 ovarian
[36] = test system: OVCAR-5 ovarian
[37] = test system: OVCAR-8 ovarian
[38] = test system: PC-3 prostate
[39] = test system: RPMI-8226 leukemia
[40] = test system: RXF 393 renal
[41] = test system: SF-268 CNS
[42] = test system: SF-295 CNS
[43] = test system: SF-539 CNS
[44] = test system: SK-MEL-2 melanoma
[45] = test system: SK-MEL-28 melanoma
[46] = test system: SK-MEL-5 melanoma
[47] = test system: SK-OV-3 ovarian
[48] = test system: SN12C renal
[49] = test system: SNB-19 CNS
[50] = test system: SR leukemia
[51] = test system: SW-620 colon
[52] = test system: T-47D breast
[53] = test system: TK-10 renal
[54] = test system: U251 CNS
[55] = test system: UACC-257 melanoma
[56] = test system: UACC-62 melanoma
[57] = test system: UO-31 renal

CN1CCN(c2ccc(C(=O)/C=C/c3ccc(Br)cc3)cc2)CC1
32.2 µM: TGI [39]
50.6 µM: TGI [21]
95.5 µM: TGI [7]
inactive: GI50 [1] 29.5 µM | GI50 [2] > 100 µM | GI50 [3] 28.1 µM | GI50 [4] 54.9 µM | GI50 [5] 12 µM | GI50 [6] 32.2 µM | GI50 [7] 40.9 µM | GI50 [8] 50.1 µM | GI50 [9] 86.6 µM | GI50 [10] > 100 µM | GI50 [11] 15.2 µM | GI50 [12] 3.54 µM | GI50 [13] 5.64 µM | GI50 [14] 10.7 µM | GI50 [15] > 100 µM | GI50 [16] > 100 µM | GI50 [17] 15.8 µM | GI50 [18] 34.5 µM | GI50 [19] 6.96 µM | GI50 [20] 16.6 µM | GI50 [21] 13.7 µM | GI50 [22] 36.6 µM | GI50 [23] > 100 µM | GI50 [24] 5.67 µM | GI50 [25] > 100 µM | GI50 [26] 22.4 µM | GI50 [27] 7.85 µM | GI50 [28] 31.3 µM | GI50 [29] 45.5 µM | GI50 [30] > 100 µM | GI50 [31] > 100 µM | GI50 [32] > 100 µM | GI50 [33] 76 µM | GI50 [34] 24.4 µM | GI50 [35] 70.8 µM | GI50 [36] 51.9 µM | GI50 [37] 54.9 µM | GI50 [38] 28.2 µM | GI50 [39] 5.38 µM | GI50 [40] 17.2 µM | GI50 [41] > 100 µM | GI50 [42] 41.3 µM | GI50 [43] 24.4 µM | GI50 [44] > 100 µM | GI50 [45] 76.2 µM | GI50 [46] 22.5 µM | GI50 [47] 53.9 µM | GI50 [48] 22.7 µM | GI50 [49] > 100 µM | GI50 [50] 8.37 µM | GI50 [51] 23.2 µM | GI50 [52] 28.7 µM | GI50 [53] > 100 µM | GI50 [54] 20.8 µM | GI50 [55] > 100 µM | GI50 [56] 17.1 µM | GI50 [57] 16.9 µM
48.7 µM: TGI [50]
> 100 µM: TGI [1] | TGI [2] | TGI [3] | TGI [4] | TGI [6] | TGI [8] | TGI [9] | TGI [10] | TGI [13] | TGI [15] | TGI [16] | TGI [17] | TGI [18] | TGI [20] | TGI [22] | TGI [23] | TGI [24] | TGI [25] | TGI [28] | TGI [29] | TGI [30] | TGI [31] | TGI [32] | TGI [33] | TGI [35] | TGI [36] | TGI [37] | TGI [38] | TGI [40] | TGI [41] | TGI [42] | TGI [43] | TGI [44] | TGI [45] | TGI [46] | TGI [47] | TGI [48] | TGI [49] | TGI [51] | TGI [52] | TGI [53] | TGI [54] | TGI [55] | TGI [57]
98 µM: TGI [26]
41 µM: TGI [27]
33.6 µM: TGI [14]
46.7 µM: TGI [5]
78.5 µM: TGI [19]
50.4 µM: TGI [11]
96 µM: TGI [34]
38.2 µM: TGI [56]
18.5 µM: TGI [12]
